# Measurements as given in patent US8618074B2, “GPCR enhanced neuroprotection to treat brain injury” (Board of Regents of the University of Texas System, priority 2007, dated 2013).
# Experiments:
# [1] = tested on: astrocytes; assay: Astrocyte survival under t-buOOH oxidative stress in the absence of neurons; type: cell-based, mouse
# Method: To determine whether P2Y-R enhanced mitochondrial metabolism in astrocytes affected neuronal resistance to oxidative stress, we prepared co-cultures of neurons and astrocytes using corning transwell-clear permeable supports, which physically separates the two cell-types by ˜1 mm (# 07-200-170, Fisher scientific). Primary cultures of astrocytes were directly prepared in transwell supports until they were ˜70% confluent. Mouse cortical neurons were then cultured onto glass bottom mattek plates and maintained in B-27/Neurobasal Medium to control glia contamination to less than 0.5% (Invitrogen). After four days, co-cultures were treated with t-buOOH (100 μM) for 4 hours with and without pre-stimulation of ATP (2 μM, 10 minutes). Cells were then stained with the DNA intercalating dye Hoechst 33342 (10 μg/ml, Molecular Probes, #H-3570) and calcein AM (2 μM, Molecular Probes, #C3100). […] We then tested the neuroprotective affects of isoform specific purinergic ligands 2-MeSADP(P2Y1-R) and UTP(P2Y2-R). FIG. 6A depicts histogram plots of the percentage of neurons alive when cocultured with young or old astrocytes. FIG. 6B depicts histogram plots of the percentage of neurons alive pretreated with either 2-MeSADP (2 μM) or UTP (50 μM) for 10 min. A ten-minute pre-treatment of astrocytes with either 2-MeSADP (2 μM), or UTP (50 μM) was equally protective against oxidative stress induced cell death. The % neurons alive after 4.5 hours of t-buOOH treatment was 51±4% (n=1664 neurons, pooled from 4 experiments) for untreated controls, 70±2% (n=2541 neurons, pooled from 4 experiments) for 2-MeSADP and 71±3% (n=1189 neurons, pooled from 4 experiments) for UTP treated co-cultures. […] The % astrocytes alive after 4.5 hours of t-buOOH treatment, in the absence of neurons, was 60±4% (n=294 cells) for control, 77±4% (n=294) for 2-MeSADP and 79±3% (n=333) for UTP treated astrocytes.
# It should be noted that stimulation of neuroprotective response in astrocytes is not restricted to signaling through P2Y receptors. For example we have shown that administration of the membrane permeable IP3 analog, IP3BM, is capable of protecting astrocytes from oxidative damage. Thus, it appears possible that any stimulus capable of evoking IP3-mediated calcium release in astrocytes is equally suitable for application in the present treatment methods. To test this possibility, astrocyte cultures subjected to oxidative stress were treated with either 2-MeSADP, or the metabotropic glutamate receptor agonist (1 S, 3 R)-1-aminocyclopentane-1,3-dicarboxylic acid (ACPD), or were left untreated.
# To directly examine the role of IP3 gated Ca^2+ release in P2Y-R enhanced astrocyte protection, we used a membrane permeant butyryloxymethyl ester of IP3 (IP3-BM). Cultures of astrocytes were exposed to IP3-BM and Ca^2+ levels were assessed using 2-photon imaging of Fura 2. Ca^2+ increases in response to IP3-BM application were easily detected, but they occurred over a much slower time course than those initiated by ATP treatment. This was not unexpected because of the slow process of IP3-BM movement across the lipid bilayer as well as the time needed to cleave the ester and accumulate IP3 in the cell. Because of the slower time course, we pretreated astrocytes for 20 minutes prior to exposing them to the oxidant stress t-BuOOH. […] The protective effect of IP3-BM treatment was blocked by the IP3R inhibitor, XeC. […]
# [2] = tested on: astrocytes; assay: Single cell astrocyte edema (swelling) after RB-induced photothrombotic event; type: in vivo, mouse; conditions: tail-vein injection
# Source text: A critical role for mitochondrial metabolism is also supported by new data obtained from a transgenic mouse model expressing a mitochondrial targeted DNA restriction enzyme, EcoR1, under the control of doxycycline (tTA/mtEcoR1, courtesy of Dr. Chris Walters, UTHSCSA). […] In addition to optically imaging multiple physiological parameters in single cells (e.g. mitochondrial membrane potentials and Ca2+ levels in real time), we have successfully imaged single cells edema formation in response to a Rose Bengal (RB)-induced photothrombotic event in a single blood vessel. Our preliminary measurements indicate that astrocyte volume increases over 6-fold during edema formation.
# [3] = tested on: astrocytes; assay: Rose Bengal induced blood clot, Fluo4 Ca2+ imaging of astrocytes in live mouse; type: in vivo; conditions: 2-MeSADP co-injected with Rose Bengal in tail vein; blood brain barrier breakdown at clot
# Method: Our working hypothesis states that P2Y-R activation in astrocytes leads to intracellular Ca^2+ release. […] In this experiment, the Ca^2+ indicator Fluo4-AM was loaded into astrocytes (90 minutes, 100 μM). Rose Bengal (RB) and the P2Y-R specific agonist 2-MeSADP were then co-injected in the tail vein of a live mouse. RB was illuminated with green light (543 nm), inducing reactive singlet oxygen and blood clots. A blood vessel was free flowing at 180 minutes, then clotted around 220 minutes after RB injection. […] More distal astrocytes a4 and a5 were not activated.
smiles,measurement,setting,value
CSc1nc(N)c2ncn([C@@H]3O[C@H](COP(=O)(O)OP(=O)(O)O)[C@@H](O)[C@H]3O)c2n1 [2-MeSADP],% astrocytes alive,"[1]; absence of neurons, 4.5 hours of t-buOOH, 2-MeSADP or UTP",77±4%
same,astrocyte resistance to oxidative stress,"[1]; astrocyte cultures subjected to oxidative stress, versus untreated",enhanced
same,astrocyte swelling (edema),[2],significantly reduced swelling
same,time to apparently complete reversal of astrocyte swelling after the initial clot,[2],≤ 8 h
same,activation (Ca2+) of astrocytes near the RB-induced clot,[3],activate nearby astrocytes
